Data: patent US20120071496A1, “Aminopyrimidinamides As Pest Control Agents” (Bayer CropScience AG, priority 2009, published 2012)

Columns and labels:
[1] = system: Spodoptera litura third instar larvae; test: Test against tobacco cutworm (Spodoptera litura) larvae; assay type: in vivo; settings: active compound concentration 100 ppm; immersed sweet potato leaves; after 7 days
Procedure: Unless not mentioned otherwise, the test solutions were prepared as follows:
Containing as solvent: Dimethylformamide, 3 parts by weight; and as emulsifier: Polyoxyethylene alkyl phenyl ether, 1 part by weight
Test Against Tobacco Cutworm (Spodoptera litura) Larvae
Leaves of sweet potato were immersed in the test solution at the appropriate concentration, and the leaves were dried in air. The leaves were then placed in a petri dish having a diameter of 9 cm, and ten Spodoptera litura at third instar larvae were released therein. The petri dishes were placed in a temperature-controlled chamber at 25° C. After 2 days and 4 days more sweet potato leaves were added. After 7 days, the number of dead larvae was counted to calculate the insecticidal activity. An insecticidal activity of 100% means that all larvae were killed, whereas an insecticidal activity of 0% means that no larva was killed.

logP (HCOOH) = assay type: physicochemical; settings: for IogP (HCOOH): table after Table 9

CCc1ncccc1C(=O)Nc1c(NC2CC2)ncnc1-c1ccc(C(F)(C(F)(F)F)C(F)(F)F)cc1 [1-232]
insecticidal activity [1]: 100%

O=C(Nc1c(NC2CC2)ncnc1-c1ccccc1)c1cccnc1C1CC1 [1-234]
insecticidal activity [1]: 100%

O=C(Nc1c(NC2CC2)ncnc1-c1ccc(F)cc1)c1cccnc1C1CC1 [1-235]
insecticidal activity [1]: 100%

O=C(Nc1c(NC2CC2)ncnc1-c1ccc(Cl)cc1)c1cccnc1C1CC1 [1-236]
insecticidal activity [1]: 100%

CCCc1ncccc1C(=O)Nc1c(NC2CC2)ncnc1-c1ccccc1 [1-237]
insecticidal activity [1]: 100%

CCCc1ncccc1C(=O)Nc1c(NC2CC2)ncnc1-c1ccc(F)cc1 [1-238]
insecticidal activity [1]: 100%

CCCc1ncccc1C(=O)Nc1c(NC2CC2)ncnc1-c1ccc(Cl)cc1 [1-239]
insecticidal activity [1]: 100%

O=C(Nc1c(NC2CC2)ncnc1-c1ccc(F)cc1F)c1cccnc1C1CC1 [1-240]
insecticidal activity [1]: 100%

O=C(Nc1c(NC2CC2)ncnc1-c1ccc(Cl)cc1)c1cccnc1C(F)(F)C(F)(F)F [1-241]
insecticidal activity [1]: 100%

N#Cc1ccc(-c2ncnc(NC3CC3)c2NC(=O)c2cccnc2C2CC2)cc1 [1-242]
insecticidal activity [1]: 100%

O=C(Nc1c(NC2CC2)ncnc1-c1ccc(OC(F)(F)F)cc1)c1cccnc1C1CC1 [1-243]
insecticidal activity [1]: 100%

CCCc1ncccc1C(=O)Nc1c(NC2CC2)ncnc1-c1ccc(Cl)cc1Cl [1-244]
insecticidal activity [1]: 100%

CCCc1ncccc1C(=O)Nc1c(NC2CC2)ncnc1-c1ccc(F)cc1F [1-245]
insecticidal activity [1]: 100%

CCCc1ncccc1C(=O)Nc1c(NC2CC2)ncnc1-c1ccc(C#N)cc1 [1-246]
insecticidal activity [1]: 100%

CCc1ncccc1C(=O)Nc1c(NC2CC2)nc(SC)nc1-c1ccc(Cn2cnc(C(F)(F)C(F)(F)F)n2)cc1 [1-290]
logP (HCOOH) (logP (HCOOH); Table 2): 2.47

CCc1ncccc1C(=O)Nc1c(NC(C)C(F)(F)F)ncnc1-c1ccc(F)cc1 (stereo not drawn) [1-299]
logP (HCOOH) (logP (HCOOH); Table 2): 1.85

O=C(Nc1c(NC2CC2)ncnc1-c1ccc(F)cc1)c1cccnc1C(F)C(F)(F)F (stereo not drawn) [1-308]
logP (HCOOH) (logP (HCOOH); Table 2): 1.83

CCc1ncccc1C(=O)Nc1c(NC2CC2)ncnc1-c1ccc(COc2ccc(C(F)(F)F)cn2)cc1 [1-309]
logP (HCOOH) (logP (HCOOH); Table 2): 1.77

CCc1nccc(Cl)c1C(=O)Nc1c(NC2CC2)ncnc1-c1ccc(F)cc1 [1-315]
logP (HCOOH) (logP (HCOOH); Table 2): 2.18

CCc1nccc(Cl)c1C(=O)Nc1c(NC2CC2)ncnc1-c1ccc(Cl)cc1 [1-316]
logP (HCOOH) (logP (HCOOH); Table 2): 2.54

CCc1cccc(C)c1C(=O)Nc1c(NC2CC2)ncnc1-c1ccc(F)cc1 [1-320]
logP (HCOOH) (logP (HCOOH); Table 2): 2.39

CCc1cccc(Cl)c1C(=O)Nc1c(NC2CC2)ncnc1-c1ccc(C#N)cc1 [1-321]
logP (HCOOH) (logP (HCOOH); Table 2): 2.37

CCc1ncccc1C(=O)Nc1c(Br)ncnc1NC1CC1 [3-3]
logP (HCOOH) (logP (HCOOH); Table 4): 0.84

O=C(Nc1c(Cl)ncnc1NC1CC1)c1cccnc1OCC(F)(F)F [3-4]
logP (HCOOH) (logP (HCOOH); Table 4): 2.25

O=C(Nc1c(Cl)ncnc1NC1CC1)c1cccnc1CC(F)(F)F [3-5]
logP (HCOOH) (logP (HCOOH); Table 4): 1.61

CCc1ncccc1C(=O)Nc1c(Cl)ncnc1NC1CC1C (stereo not drawn) [3-7]
logP (HCOOH) (logP (HCOOH); Table 4): 1.26

CCc1ncccc1C(=O)Nc1c(CC)ncnc1NC1CC1 [3-8]
logP (HCOOH) (logP (HCOOH); Table 4): 1.74

CCc1ncccc1C(=O)Nc1c(Cl)nc(C)nc1NC1CC1 [3-9]
logP (HCOOH) (logP (HCOOH); Table 4): 1.41

CCc1ncccc1C(=O)Nc1c(Cl)ncnc1Nc1ccc(C(F)(F)F)cc1 [5-5, N-(4-Chloro-6-{[4-(trifluoromethyl)phenyl]amino}pyrimidin-5-yl)-2-ethylnicotinamide]
chromatographic logP (logP (HCOOH); HCOOH (formic acid), Table 6): 2.12

O=C(Nc1c(NC2CC2)ncnc1-c1ccc(F)cc1)c1ccnn1-c1ccc(F)cc1 [9-1]
IogP (HCOOH) (logP (HCOOH)): 1.70

O=C(Nc1c(NC2CC2)ncnc1-c1ccc(F)cc1)c1ccnn1-c1ccc(Cl)cc1 [9-2]
IogP (HCOOH) (logP (HCOOH)): 2.02

O=C(Nc1c(NC2CC2)ncnc1-c1ccc(F)cc1)c1ccnn1-c1ccccc1Cl [9-3]
IogP (HCOOH) (logP (HCOOH)): 1.76

O=C(Nc1c(NC2CC2)ncnc1-c1ccc(Cl)cc1)c1ccnn1-c1ccccc1Cl [9-4]
IogP (HCOOH) (logP (HCOOH)): 2.05
